Source: US11000033B2, “Ketone or oxime compound, and herbicide” (NISSAN CHEMICAL CORPORATION, priority 2014, dated 2021)

Tests used:
Format in all cases: in vivo
[1] = system: Echinochloa oryzacola Vasing.; test: Test Example 1: herbicidal activity, application before weed generation in submerged conditions (symbol A); conditions: application herbicide amount 320 g/ha
Outline: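 Steps: alluvial soil flooded to 4 cm; weed seeds sown together; rice seedlings (2.5 leaf) transplanted; diluted emulsion applied to water surface the same day as sowing; plants grown at 25–30 °C in greenhouse; herbicidal effect rated on a 0–5 scale at 3 weeks.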

[2] = system: Echinochloa crus-galli var. crus-galli; test: Test Example 3: herbicidal effect by foliage application, Wagner pot (symbol H); conditions: application herbicide amount 320 g/ha
Outline: (§1)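 Alluvial soil was flooded to a depth of 0.1–0.5 cm, seeded with the weeds and rice, and kept in a greenhouse at 25–30 °C. After 14 days of growth, the foliage received a small-sprayer application of emulsion diluted to the intended rate; injury was rated at 3 weeks.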

[3] = system: Leptochloa chinensis; test: Test Example 3: herbicidal effect by foliage application, Wagner pot (symbol D); conditions: application herbicide amount 320 g/ha
Outline: as §1

[4] = system: Digitaria ciliaris; test: Test Example 4: herbicidal effect by soil treatment (symbol F); conditions: application herbicide amount 320 g/ha
Outline: (§2)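 Seeds were sown in sterilized diluvial soil, covered with about 1.5 cm of soil, and the soil surface was sprayed with a water-diluted emulsion of the compound at a predetermined rate. Plants grew in a greenhouse at 25° C. to 30° C.; effects were scored visually 3 weeks after application.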

[5] = system: Setaria viridis; test: Test Example 4: herbicidal effect by soil treatment (symbol G); conditions: application herbicide amount 320 g/ha
Outline: as §2

[6] = system: Avena fatua; test: Test Example 4: herbicidal effect by soil treatment (symbol I); conditions: application herbicide amount 320 g/ha
Outline: as §2

[7] = system: Alopecurus myosuroides; test: Test Example 4: herbicidal effect by soil treatment (symbol J); conditions: application herbicide amount 320 g/ha
Outline: as §2

[8] = system: Amaranthus retroflexus; test: Test Example 4: herbicidal effect by soil treatment (symbol N); conditions: application herbicide amount 320 g/ha
Outline: as §2

[9] = system: rapeseed; test: Test Example 4: effect on crop by soil treatment (symbol g); conditions: application herbicide amount 320 g/ha
Outline: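 Sterilized diluvial soil, spot sowing, ~1.5 cm soil cover; greenhouse 25–30° C.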

[10] = system: Digitaria ciliaris; test: Test Example 5: herbicidal effect by foliage application, plastic box (symbol F); conditions: 320 g/ha, 3 weeks after application
Outline: (§3)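 Post-emergence spray; diluvial soil (sterilized), ~1.5 cm seed cover; greenhouse 25–30° C; 14-day-old plants; water-diluted emulsion at predetermined dose; visual score at 3 wk post-treatment.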

[11] = system: Setaria viridis; test: Test Example 5: herbicidal effect by foliage application, plastic box (symbol G); conditions: 320 g/ha, 3 weeks after application
Outline: as §3

[12] = system: Lolium multiflorum Lam.; test: Test Example 5: herbicidal effect by foliage application, plastic box (symbol K); conditions: 320 g/ha, 3 weeks after application
Outline: as §3

[13] = system: Apera spica-venti; test: Test Example 5: herbicidal effect by foliage application, plastic box (symbol L); conditions: 320 g/ha, 3 weeks after application
Outline: as §3

[14] = system: Abutilon theophrasti; test: Test Example 5: herbicidal effect by foliage application, plastic box (symbol M); conditions: 320 g/ha, 3 weeks after application
Outline: as §3

[15] = system: Galium spurium; test: Test Example 5: herbicidal effect by foliage application, plastic box (symbol Q); conditions: 320 g/ha, 3 weeks after application
Outline: as §3

[16] = system: rice plant; test: Test Example 5: effect on crop by foliage application, plastic box (symbol b); conditions: 320 g/ha, 3 weeks after application
Outline: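 Crop seed is sown alongside grass and broadleaf weed species in spots in sterilized diluvial soil, then covered to a depth of about 1.5 cm. Plants grow in a greenhouse kept at 25° C. to 30° C.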

[17] = system: Stellaria media; test: Test Example 5: herbicidal effect by foliage application, plastic box (symbol P); conditions: 320 g/ha, 3 weeks after application
Outline: as §3

[18] = system: Chenopodium album; test: Test Example 5: herbicidal effect by foliage application, plastic box (symbol O); conditions: 320 g/ha, 3 weeks after application
Outline: as §3

| Structure (SMILES) | Herbicidal effect grade, A: Echinochloa oryzacola Vasing. [1] | herbicidal effect on H (Echinochloa crus-galli var. crus-galli), grade 0-5 [2] | herbicidal effect on D (Leptochloa chinensis), grade 0-5 [3] | F: Digitaria ciliaris, herbicidal effect grade [4] | G: Setaria viridis, herbicidal effect grade [5] | I: Avena fatua, herbicidal effect grade [6] | J: Alopecurus myosuroides, herbicidal effect grade [7] | N: Amaranthus retroflexus, herbicidal effect grade [8] | g: rapeseed, effect on crop grade [9] | F: Digitaria ciliaris, herbicidal effect grade [10] | G: Setaria viridis, herbicidal effect grade [11] | K: Lolium multiflorum Lam., herbicidal effect grade [12] | L: Apera spica-venti, herbicidal effect grade [13] | M: Abutilon theophrasti, herbicidal effect grade [14] | Q: Galium spurium, herbicidal effect grade [15] | b: directly sowed rice plant, effect on crop grade [16] | P: Stellaria media, herbicidal effect grade [17] | O: Chenopodium album, herbicidal effect grade [18] |
| --- | --- | --- | --- | --- | --- | --- | --- | --- | --- | --- | --- | --- | --- | --- | --- | --- | --- | --- |
| CC(=O)CC1CC(OC(=O)C(C)(C)C)=C(c2c(C)cc(C)cc2C)C1=O (stereo not shown) [2-018] | 5 (Herbicidal ratio of 90% or more (almost completely withered)) | 5 (Herbicidal ratio of 90% or more (almost completely withered)) | 5 (Herbicidal ratio of 90% or more (almost completely withered)) | 5 (Herbicidal ratio of 90% or more (almost completely withered)) | 5 (Herbicidal ratio of 90% or more (almost completely withered)) | 0 (Herbicidal ratio of 5% or lower (almost no effect)) | 3 (Herbicidal ratio of 40% or higher and lower than 70%) | 3 (Herbicidal ratio of 40% or higher and lower than 70%) | 3 (Herbicidal ratio of 40% or higher and lower than 70%) | 1 (Herbicidal ratio of 5% or higher and lower than 20%) | 1 (Herbicidal ratio of 5% or higher and lower than 20%) | 4 (Herbicidal ratio of 70% or higher and lower than 90%) | 1 (Herbicidal ratio of 5% or higher and lower than 20%) | 0 (Herbicidal ratio of 5% or lower (almost no effect)) | 0 (Herbicidal ratio of 5% or lower (almost no effect)) | 2 (Herbicidal ratio of 20% or higher and lower than 40%) |  |  |
| CCC(=O)CCC1CC(O)=C(c2c(C)cc(C)cc2C)C1=O (stereo not shown) [5-001] | 0 (Herbicidal ratio of 5% or lower (almost no effect)) | 2 (Herbicidal ratio of 20% or higher and lower than 40%) | 3 (Herbicidal ratio of 40% or higher and lower than 70%) | 4 (Herbicidal ratio of 70% or higher and lower than 90%) | 0 (Herbicidal ratio of 5% or lower (almost no effect)) | 0 (Herbicidal ratio of 5% or lower (almost no effect)) | 2 (Herbicidal ratio of 20% or higher and lower than 40%) | 0 (Herbicidal ratio of 5% or lower (almost no effect)) | 0 (Herbicidal ratio of 5% or lower (almost no effect)) | 4 (Herbicidal ratio of 70% or higher and lower than 90%) | 3 (Herbicidal ratio of 40% or higher and lower than 70%) | 5 (Herbicidal ratio of 90% or more (almost completely withered)) | 4 (Herbicidal ratio of 70% or higher and lower than 90%) | 0 (Herbicidal ratio of 5% or lower (almost no effect)) | 0 (Herbicidal ratio of 5% or lower (almost no effect)) | 4 (Herbicidal ratio of 70% or higher and lower than 90%) | 0 (Herbicidal ratio of 5% or lower (almost no effect)) |  |
| CCc1cc(Br)cc(C)c1C1=C(O)CC(C(C(=O)OC)C(C)=NOC)C1=O (stereo not shown) [6-002] | 3 (Herbicidal ratio of 40% or higher and lower than 70%) | 4 (Herbicidal ratio of 70% or higher and lower than 90%) | 4 (Herbicidal ratio of 70% or higher and lower than 90%) | 2 (Herbicidal ratio of 20% or higher and lower than 40%) | 3 (Herbicidal ratio of 40% or higher and lower than 70%) | 0 (Herbicidal ratio of 5% or lower (almost no effect)) | 2 (Herbicidal ratio of 20% or higher and lower than 40%) | 0 (Herbicidal ratio of 5% or lower (almost no effect)) | 0 (Herbicidal ratio of 5% or lower (almost no effect)) | 5 (Herbicidal ratio of 90% or more (almost completely withered)) | 5 (Herbicidal ratio of 90% or more (almost completely withered)) | 5 (Herbicidal ratio of 90% or more (almost completely withered)) | 5 (Herbicidal ratio of 90% or more (almost completely withered)) | 1 (Herbicidal ratio of 5% or higher and lower than 20%) | 0 (Herbicidal ratio of 5% or lower (almost no effect)) | 5 (Herbicidal ratio of 90% or more (almost completely withered)) |  | 0 (Herbicidal ratio of 5% or lower (almost no effect)) |
| CC#Cc1cc(C)c(C2=C(O)CC(CC(C)=NOC)C2=O)c(C)c1 (mixture of isomers) [6-009] | 5 (Herbicidal ratio of 90% or more (almost completely withered)) | 5 (Herbicidal ratio of 90% or more (almost completely withered)) | 5 (Herbicidal ratio of 90% or more (almost completely withered)) | 5 (Herbicidal ratio of 90% or more (almost completely withered)) | 5 (Herbicidal ratio of 90% or more (almost completely withered)) | 4 (Herbicidal ratio of 70% or higher and lower than 90%) | 5 (Herbicidal ratio of 90% or more (almost completely withered)) | 5 (Herbicidal ratio of 90% or more (almost completely withered)) | 4 (Herbicidal ratio of 70% or higher and lower than 90%) | 5 (Herbicidal ratio of 90% or more (almost completely withered)) | 5 (Herbicidal ratio of 90% or more (almost completely withered)) | 5 (Herbicidal ratio of 90% or more (almost completely withered)) | 5 (Herbicidal ratio of 90% or more (almost completely withered)) | 3 (Herbicidal ratio of 40% or higher and lower than 70%) | 0 (Herbicidal ratio of 5% or lower (almost no effect)) | 5 (Herbicidal ratio of 90% or more (almost completely withered)) |  | 2 (Herbicidal ratio of 20% or higher and lower than 40%) |
